# From US20250234861A1, “LACTONES FOR ENHANCING THE ACTIVITY OF ANTIMICROBIAL AGENTS” (BASF SE, priority 2021, published 2025)
# Key:
# Assay type in all cases: cell-based
# [1] = test system: bacterial mix consisting of Escherichia coli DSM 1576, Alcaligenes faecalis DSM 13644, Pseudomonas aeruginosa ATCC 15442, Staphylococcus aureus ATCC 6538 …; test: Example 2.3: preservative activity of a basic composition (pH 7, 10% PG) using 1,2-benzisothiazol-3(2H)-one (BIT), bacterial challenge; conditions: day 7
# Description: An aqueous composition of pH 7 comprising 10% by weight of propyleneglycol (PG) as organic solvent, 0.004% by weight of 1,2-benzisothiazol-3(2H)-one (BIT) as antimicrobial and the lactone listed in the below table was tested for its preserving activity against bacterial contamination (the weight percentages relate to the total weight of the composition). For this purpose, the samples were contaminated with a bacterial mix consisting of: • Escherichia coli DSM 1576 • Alcaligenes faecalis DSM 13644 • Pseudomonas aeruginosa ATCC 15442 • Staphylococcus aureus ATCC 6538 • Burkholderia cepacia DSM 7288 • Pseudomonas putida DSM 12735
# The samples were inoculated with the bacterial mix at day 0 to obtain 10E+06 to 10E+07 CFU/ml inoculation in the test sample and stored at 25° C. for 7 days.
# (§1) CFU was determined at day 7.
# Any CFU value at day 7 (d7) obtained with a sample according to the invention containing BIT and lactone (10% PG+0.004% BIT+x % of Lactone) that is lower than the respective value of the “comparative 2” example (10% PG+0.004% BIT) indicates a better performance.
# [2] = test system: fungal mix consisting of Aspergillus brasiliensis DSM 1988, Rhodotorula mucilaginosa DSM 13621, Yarrowialipolytica DSM 8218; test: Example 1.2: preservative activity in a manual dishwashing composition (MDW, pH 7.1) using 2-phenoxyethanol (PE), fungal challenge; conditions: for d7 CFU: day 7; for d14 CFU: day 14; for d21 CFU: day 21
# Description: (§2) A manual dish wash detergent (MWD) of pH 7.1 containing the following components was used:
# (§3) The samples were contaminated with a fungal mix consisting of: • Aspergillus brasiliensis DSM 1988 • Rhodotorula mucilaginosa DSM 13621 • Yarrowialipolytica DSM 8218
# (§4) The samples were inoculated with the fungal mix at day 0 and 7 to obtain 1-3×10E+05 CFU/ml inoculation in the test sample consisting of the above-defined dish wash detergent MDW and stored at 25° C. for 21 days. CFU was determined before re-inoculation at day 7, and on days 14 and 21.
# (§5) Any CFU value at d7, d14 or d21 obtained with a MDW sample of the invention containing 2-phenoxyethanol and lactone (MDW+1.0% PE+x % of Lactone) lower than the respective value of the “comparative 2” example (MDW+1.0% by weight of 2-Phenoxyethanol) indicates a better performance of the inventive combination of 2-phenoxyethanol with the lactone.
# [3] = test system: fungal mix consisting of Aspergillus brasiliensis DSM 1988, Rhodotorula mucilaginosa DSM 13621, Yarrowialipolytica DSM 8218; test: Example 1.3: preservative activity in a manual dishwashing composition (MDW, pH 7.1) using 2-phenoxyethanol (PE), fungal challenge; conditions: for d7 CFU: day 7; for d14 CFU: day 14; for d21 CFU: day 21
# Description: as §2, §3, §4, §5
# [4] = test system: bacterial mix consisting of Escherichia coli DSM 1576, Alcaligenes faecalis DSM 13644, Pseudomonas aeruginosa ATCC 15442, Staphylococcus aureus ATCC 6538 …; test: Example 2.1: preservative activity in a manual dishwashing composition (MDW, pH 7.1) using 2-phenoxyethanol (PE), bacterial challenge; conditions: for d7 CFU: day 7; for d14 CFU: day 14; for d21 CFU: day 21
# Description: as §2
# The samples were contaminated with a bacterial mix consisting of: • Escherichia coli DSM 1576 • Alcaligenes faecalis DSM 13644 • Pseudomonas aeruginosa ATCC 15442 • Staphylococcus aureus ATCC 6538 • Burkholderia cepacia DSM 7288 • Pseudomonas putida DSM 12735
# The samples were inoculated with the bacterial mix at day 0 and 7 to obtain 10E+06 to 10E+07 CFU/ml inoculation in the test sample and stored at 25° C. for 21 days. CFU was determined before re-inoculation at day 7 and on days 14 and 21.
# Any CFU value at day 7 (d7), day 14 (d14) or day 21 (d21) obtained with a sample according to the invention containing 2-phenoxyethanol and lactone (MDW+1.0% PE+x % Lactone) lower than the respective value of the “comparative 2” example (MDW+1.0% by weight of 2-Phenoxyethanol) indicates a better performance.
# [5] = test system: Pseudomonas aeruginosa ATCC 15442; test: Example 2.4: preservative activity of a basic composition (pH 5, 10% PG) using sodium benzoate, bacterial challenge; conditions: day 7
# Description: An aqueous composition of pH 5 comprising 10% by weight of propyleneglycol (PG) as organic solvent, sodium benzoate as antimicrobial and 0.18% by weight of γ-valerolactone was tested for its preserving activity against bacterial contamination (the weight percentages relate to the total weight of the composition). For this purpose, the samples were contaminated with a bacterial suspension of Pseudomonas aeruginosa ATCC 15442.
# The samples were inoculated with the bacterial suspension at day 0 to obtain 6.1×10E+07 CFU/ml inoculation in the test sample and stored at 25° C. for 7 days.
# as §1
# Any CFU value at day 7 (d7) obtained with a sample according to the invention containing sodium benzoate and lactone (10% PG+x % sodium benzoate+0.18% of Lactone) lower than the respective value of the “comparative 2” example (10% PG+0.5% sodium benzoate) or “comparative 3” example (10% PG+0.85% sodium benzoate) indicates a better performance.
# [6] = MDW pH 7.1 + 1.0% of the substance alone (comparative), fungal mix inoculated day 0 and 7, 25° C.
# [7] = MDW pH 7.1 + 1.0% of the substance alone (comparative), fungal mix
# [8] = MDW pH 7.1 + 1.0% of the substance alone (comparative), bacterial mix inoculated day 0 and 7, 25° C.
# [9] = MDW pH 7.1 + 1.0% of the substance alone (comparative), bacterial mix
# [10] = MDW + 1.0% PE + 1% of lactone, bacterial mix
# [11] = MDW + 1.0% PE + 1% of lactone, fungal mix
# [12] = MDW + 1.0% PE + 2% of lactone, fungal mix
smiles,measurement,setting,value
"O=c1[nH]sc2ccccc12 [BIT, 1,2-benzisothiazol-3(2H)-one, reference compound]",d7 [CFU/ml],"[1]; 10% PG, pH 7 + 0.004% BIT alone (Comparative 2)",">100,000 CFU/ml"
OCCOc1ccccc1 [Phenoxyethanol (PE)],d7 CFU,[2]; [6],"34,500 CFU"
same,d14 CFU,[2]; [6],"16,500 CFU"
same,d21 CFU,[2]; [6],"3,800 CFU"
same,d7 CFU,[3]; [6],">100,000 CFU"
same,d14 CFU,[3]; [7],">100,000 CFU"
same,d21 CFU,[3]; [7],">100,000 CFU"
same,d7 CFU,[4]; [8],625 CFU
same,d14 CFU,[4]; [9],">100,000 CFU"
same,d21 CFU,[4]; [9],">100,000 CFU"
CCCCCC1CCC(=O)O1 (centres unmarked) [Y-Nonalactone],d7 CFU,[4]; [8],"8,400 CFU"
same,d14 CFU,[4]; [9],">100,000 CFU"
same,d21 CFU,[4]; [9],">100,000 CFU"
"O=C([O-])c1ccccc1.[Na+] [sodium benzoate, reference compound]",d7 [CFU/ml],"[5]; 10% PG, pH 5 + 0.5% sodium benzoate alone (Comparative 2)",">100,000 CFU/ml"
same,d7 [CFU/ml],"[5]; 10% PG, pH 5 + 0.85% sodium benzoate alone (Comparative 3)",">100,000 CFU/ml"
CCCCCCC1CCC(=O)O1 (centres unmarked) [y-Decalactone],d7 CFU,[4]; [10],<10 CFU
same,d14 CFU,[4]; [10],<10 CFU
same,d21 CFU,[4]; [10],<10 CFU
same,d7 CFU,[4]; [8],">100,000 CFU"
same,d14 CFU,[4]; [9],">100,000 CFU"
same,d21 CFU,[4]; [9],">100,000 CFU"
CCCCCC1CCC(=O)O1 (centres unmarked) [y-Nonalactone],d7 CFU,[4]; [10],<10 CFU
same,d14 CFU,[4]; [10],<10 CFU
same,d21 CFU,[4]; [10],<10 CFU
CCCCCCC1CCC(=O)O1 (centres unmarked) [γ-Decalactone],d7 CFU,[3]; [11],"24,500 CFU"
same,d14 CFU,[3]; [11],"13,000 CFU"
same,d21 CFU,[3]; [11],1200 CFU
same,d7 CFU,[3]; [6],">100,000 CFU"
same,d14 CFU,[3]; [7],">100,000 CFU"
same,d21 CFU,[3]; [7],">100,000 CFU"
CCCCCC1CCC(=O)O1 (centres unmarked) [γ-nonalactone],d7 CFU,[3]; [11],"4,100 CFU"
same,d14 CFU,[3]; [11],"5,000 CFU"
same,d21 CFU,[3]; [11],150 CFU
same,d7 CFU,[3]; [6],">100,000 CFU"
same,d14 CFU,[3]; [7],">100,000 CFU"
same,d21 CFU,[3]; [7],">100,000 CFU"
CC1CCC(=O)O1 (centres unmarked) [γ-valerolactone],d7 CFU,[2]; [11],"3,500 CFU"
same,d14 CFU,[2]; [11],"3,600 CFU"
same,d21 CFU,[2]; [11],385 CFU
same,d7 CFU,[2]; [12],85 CFU
same,d14 CFU,[2]; [12],95 CFU
same,d21 CFU,[2]; [12],<10 CFU
same,d7 CFU,[2]; [6],"12,000 CFU"
same,d14 CFU,[2]; [6],"24,500 CFU"
same,d21 CFU,[2]; [6],"2,500 CFU"
same,d7 [CFU/ml],[5]; 10% PG + 0.5% sodium benzoate + 0.18% of lactone,990 CFU/ml
same,d7 [CFU/ml],[5]; 10% PG + 0.85% sodium benzoate + 0.18% of lactone,890 CFU/ml
same,d7 [CFU/ml],"[5]; 10% PG, pH 5 + 0.18% lactone alone (Comparative 1), P. aeruginosa, 25° C.",">100,000 CFU/ml"
same,d7 [CFU/ml],[1]; 10% PG + 0.004% BIT + 0.04% of lactone,145 CFU/ml
same,d7 [CFU/ml],"[1]; 10% PG, pH 7 + 0.04% lactone alone (Comparative 1), 25° C.",">100,000 CFU/ml"
